Results published in patent publication US20210254056A1, “IDENTIFICATION AND TARGETED MODULATION OF GENE SIGNALING NETWORKS” (CAMP4 THERAPEUTICS CORPORATION, priority 2017, published 2021).
Where two headings read alike, the source gives them in different places.

Tested on: hepatocytes
Test: RNA-seq of hepatocytes treated with Phase III failure compounds
Details: for significant modulation of expression of disease genes: q≤0.05, genes in the value or listed in the block
Procedure: RNA-seq was performed to determine the effects of the compounds on hepatocytes.
Significance was determined by the criteria of FPKM≥0.5, a log 2(fold-change)≥1, and a […].

Structure (SMILES): CC(C)[C@H](O)C(=O)N[C@@H](C)C(=O)N[C@@H]1C(=O)N(C)CCc2ccccc21 [Semagacestat]
- Number (#) of genes having significantly changed expression (RNA-seq, Phase III failure compounds, hepatocytes, significance: FPKM≥0.5, log 2(fold-change)≥1, q-value≥0.05 (so in the source)): 9
- significant modulation of expression of disease genes (RNA-seq, hepatocytes): significantly (q≤0.05) modulate expression of CYP3A4
- B2M expression, RNA-seq result (gene B2M, hepatocytes): −0.06
- B9D2 expression, RNA-seq result (gene B9D2, hepatocytes): 0.10
- BAAT expression, RNA-seq result (gene BAAT, hepatocytes): 0.02
- BBOX1 expression, RNA-seq result (gene BBOX1, hepatocytes): −0.39
- BBS10 expression, RNA-seq result (gene BBS10, hepatocytes): −0.12
- BCHE expression, RNA-seq result (gene BCHE, hepatocytes): −0.07
- BCKDHB expression, RNA-seq result (gene BCKDHB, hepatocytes): 0.07
- BCKDK expression, RNA-seq result (gene BCKDK, hepatocytes): 0.00
- BCO1 expression, RNA-seq result (gene BCO1, hepatocytes): −0.09
- BCR expression, RNA-seq result (gene BCR, hepatocytes): −0.04
- BLNK expression, RNA-seq result (gene BLNK, hepatocytes): −0.03
- BLOC1S3 expression, RNA-seq result (gene BLOC1S3, hepatocytes): −0.02
- BMPR1A expression, RNA-seq result (gene BMPR1A, hepatocytes): 0.01
- BRAF expression, RNA-seq result (gene BRAF, hepatocytes): 0.30
- BSCL2 expression, RNA-seq result (gene BSCL2, hepatocytes): 0.05
- BTD expression, RNA-seq result (gene BTD, hepatocytes): −0.02
- C4A expression, RNA-seq result (gene C4A, hepatocytes): 0.16
- C9 expression, RNA-seq result (gene C9, hepatocytes): −0.11
- C10orf10 expression, RNA-seq result (gene C10orf10, hepatocytes): 0.01
- C10orf11 expression, RNA-seq result (gene C10orf11, hepatocytes): −0.27
- C15orf41 expression, RNA-seq result (gene C15orf41, hepatocytes): −0.28
- CA2 expression, RNA-seq result (gene CA2, hepatocytes): 0.59
- CA5A expression, RNA-seq result (gene CA5A, hepatocytes): −0.22
- CA12 expression, RNA-seq result (gene CA12, hepatocytes): 0.80
- CAV1 expression, RNA-seq result (gene CAV1, hepatocytes): −0.21
- CCND1 expression, RNA-seq result (gene CCND1, hepatocytes): −0.14
- CD46 expression, RNA-seq result (gene CD46, hepatocytes): −0.05
- CD81 expression, RNA-seq result (gene CD81, hepatocytes): −0.02
- CD320 expression, RNA-seq result (gene CD320, hepatocytes): −0.04
- CDAN1 expression, RNA-seq result (gene CDAN1, hepatocytes): −0.07
- CDH1 expression, RNA-seq result (gene CDH1, hepatocytes): 0.01
- CEP19 expression, RNA-seq result (gene CEP19, hepatocytes): −0.22
- CEP83 expression, RNA-seq result (gene CEP83, hepatocytes): −0.04
- CEP164 expression, RNA-seq result (gene CEP164, hepatocytes): −0.01
- CEP290 expression, RNA-seq result (gene CEP290, hepatocytes): 0.06
- CFB expression, RNA-seq result (gene CFB, hepatocytes): −0.07
- CFHR2 expression, RNA-seq result (gene CFHR2, hepatocytes): 0.01
- CHRM3 expression, RNA-seq result (gene CHRM3, hepatocytes): 0.08
- CIDEC expression, RNA-seq result (gene CIDEC, hepatocytes): 0.28
- CLDN1 expression, RNA-seq result (gene CLDN1, hepatocytes): −0.05
- COG1 expression, RNA-seq result (gene COG1, hepatocytes): 0.17

Structure (SMILES): CN[C@@]1(C)[C@@H]2CC[C@@H](C2)C1(C)C.Cl [TC-5214 (R-Mecamylamine hydrochloride), R-Mecamylamine hydrochloride]
- significant changes in gene expression (RNA-seq of Table 36, FPKM≥0.5, log 2(fold-change)≥1, q-value≤0.05): not observed to cause any significant changes in gene expression
- significant modulation of expression of disease genes (RNA-seq, hepatocytes): significantly (q≤0.05) modulate expression of GCSH
- log 2 fold change in expression of GCSH (RNA-seq, hepatocytes): −1.31

Structure (SMILES): CN[C@@]1(C)[C@@H]2CC[C@@H](C2)C1(C)C [TC-5214]
- Number (#) of genes having significantly changed expression: 30
